Values after ≈ are worked out from the molar mass of the structure shown.

One data set relates to Plasmodium falciparum. More on the design: method as in PMID 19573585. As to conditions: cited from earlier work.
Another data set relates to HCT116. More on the design: method as in PMID 31918304. As to conditions: colon cancer cell line HCT116; read-out: IC50, cytotoxicity against HCT116; cited from earlier work.
For a further data set, the system named is α-glucosidase. The data set is described as follows: colorimetric α-glucosidase inhibitory assay. The format is biochemical. As to conditions: for %Inhibition at 250 µg/mL: sample at 250 µg/mL; for IC50: substrate p-nitrophenyl α-D-glucoside, 37 °C. How it is done: The previously reported approach was used to perform a colorimetric α-glucosidase assay. Briefly, the tested samples (50 µL) were combined with 50 µL of the α-glucosidase enzyme solution (0.05 U/mL) and preincubated at 37 °C for 5 min. The substrate (50 µL, c 1 mM), p-nitrophenyl α-D-glucoside, was added and incubated at 37 °C for 30 min. Then, 50 µL of Na2CO3 (0.3 M) was added. The absorption of the mixture was measured at 405 nm.

On to `CC(=O)O[C@H]1[C@H]2OC(=O)C=C[C@@H]2O[C@H]1c1ccccc1` [(+)-3-Acetylaltholactone], for which, in the data set on Plasmodium falciparum, the “IC50, antiplasmodial activity” value was 2.6 µg/mL (≈ 9.48 µM). Take `O=C1C=CCC(/C=C\c2ccccc2)O1` (stereo not shown) [(Z)-6-styryl-5,6-dihydro-2-pyranone]: in the data set on HCT116, the IC50 is 22.2 µM. As for `C[C@H]1O[C@H](O[C@H]2[C@H](O)[C@@H](O)[C@@H](O[C@H]3[C@H](O)[C@@H](O)C(O)O[C@@H]3CO)O[C@@H]2CO)[C@H](O)[C@@H](O)[C@@H]1N[C@H]1C=C(CO)[C@@H](O)[C@H](O)[C@H]1O` (stereo partly shown) [Acarbose, reference compound], in the data set with α-glucosidase, the “%Inhibition at 250 µg/mL” value was found to be 88.1%.

`COc1cccc2c1cc1c3c(cc4c(c32)OC2Oc3c(cc5c6c(cc7ccccc7c36)NC5=O)OC2O4)C(=O)N1` (stereo not shown) [Compound 1, Gonioridleylactam] yielded a melting point of 296 to 298 °C. Besides, in the data set on α-glucosidase, the “%Inhibition at 250 µg/mL” value is 99.6% and half-maximal inhibition (IC50) required 138.9 ± 0.9 µM. Take `Cn1cc(CO)c2c1C(=O)c1ccccc1C2=O` [Compound 2, 3-hydroxymethyl-1-methyl-1H-benz[f]indole-4,9-dione]: the “%Inhibition at 250 µg/mL” value in the data set with α-glucosidase was 99.3%.

Consider `Cn1cc(C(=O)O)c2c1C(=O)c1ccccc1C2=O` [Compound 3, goniochelienic acid B], for which, in the data set with α-glucosidase, the “%Inhibition at 250 µg/mL” value was 99.5%.

For `C[C@@H]1C2=C(NC(=O)[C@@H]1O)C(=O)c1ccccc1C2=O` [Compound 4, griffithazanone A], the “%Inhibition at 250 µg/mL” value with α-glucosidase was determined as 98.0%. For `O=C1C=CC(=CC=Cc2ccccc2)O1` [Compound 7, 5-(3-phenyl-2-propenylidene)-2(5H)-furanone], in the data set on α-glucosidase, the “%Inhibition at 250 µg/mL” value was found to be 98.6% and the IC50 came out at 1.25 ± 0.4 µM.

For `O=C1C=C[C@@H](O)[C@@H](/C=C/c2ccccc2)O1` [Compound 9, (−)-5-hydroxygoniothalamin], the “%Inhibition at 250 µg/mL” value in the data set with α-glucosidase was 99.8%. As for (−)-nordicentrine, the “IC50, antiplasmodial activity” value in the data set on Plasmodium falciparum is 0.3 µg/mL.

A word on the IC50: it is the concentration needed to halve the response being measured. As a reminder, the %Inhibition is the share of the control response that was lost under treatment. High values mean a strong effect, low ones a weak effect. For orientation: melting point means the temperature of the solid-liquid transition.

Source of the values: paper PMC9918889, “Alkaloids and Styryl lactones from Goniothalamus ridleyi King and Their α-Glucosidase Inhibitory Activity” (Molecules, 2023).
